Test system: 817829-284-R-J1-PDC complex spheroid viability
Experiment: Anticancer human tumor 817829-284-R-J1-PDC patient-derived colon adenocarcinoma cell line growth inhibition [POLQ]
Settings: for IC50: curve of first compound; for viability, T/C: stronger effect = lower value
How it was run: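 PDC + HUVEC + MSC complex spheroids; POLQ inhibitors ± partner drugs; top conc. at/near clinical Cmax, else 10 microM (SN-38 1 microM), half-log dilutions; 37 degrees C, 5% CO2.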

[1] = second compound 0.0316 µM, first compound 0.0316 µM
[2] = second compound 0.0316 µM, first compound 0.1 µM
[3] = second compound 0.0316 µM, first compound 0.316 µM
[4] = second compound 0.0316 µM, first compound 1 µM
[5] = second compound 0.1 µM, first compound 0.0316 µM
[6] = second compound 0.1 µM, first compound 0.1 µM
[7] = second compound 0.1 µM, first compound 0.316 µM
[8] = second compound 0.1 µM, first compound 1 µM
[9] = second compound 0.316 µM, first compound 0.0316 µM
[10] = second compound 0.316 µM, first compound 0.1 µM
[11] = second compound 0.316 µM, first compound 0.316 µM
[12] = second compound 0.316 µM, first compound 1 µM
[13] = second compound 1 µM, first compound 0.0316 µM
[14] = second compound 1 µM, first compound 0.1 µM
[15] = second compound 1 µM, first compound 0.316 µM
[16] = second compound 1 µM, first compound 1 µM
[17] = second compound 3.16 µM, first compound 0.0316 µM
[18] = second compound 3.16 µM, first compound 0.1 µM
[19] = second compound 3.16 µM, first compound 0.316 µM
[20] = second compound 3.16 µM, first compound 1 µM
[21] = second compound 10 µM, first compound 0.0316 µM
[22] = second compound 10 µM, first compound 0.1 µM
[23] = second compound 10 µM, first compound 0.316 µM
[24] = second compound 10 µM, first compound 1 µM
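Also: spheroids exposed to compounds for 7 days.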
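For viability, T/C in this document: 100% = DMSO vehicle-treated spheroids.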

COc1ccc([C@@H](O)c2cc(-c3ncnc4cc(N5CCOCC5)ccc34)c(F)cc2Cl)nn1 + Nc1ccc(C#CCN(C(=O)Cc2ncc(C(F)(F)F)cc2C(F)(F)F)c2ccc(F)cc2)nn1
IC50 (second compound 0.0316 µM): 1190 nM | IC50 (second compound 0.1 µM): 701 nM | IC50 (second compound 0.316 µM): 1190 nM | IC50 (second compound 1 µM): 925 nM | IC50 (second compound 3.16 µM): 1120 nM | IC50 (second compound 10 µM): 460 nM | viability, T/C [1]: 109% | viability, T/C [2]: 85.4% | viability, T/C [3]: 85% | viability, T/C [4]: 52% | viability, T/C (second compound 0.0316 µM, first compound 3.16 µM): 28.9% | viability, T/C (second compound 0.0316 µM, first compound 10 µM): 17.7% | viability, T/C [5]: 121% | viability, T/C [6]: 89.8% | viability, T/C [7]: 63.5% | viability, T/C [8]: 42.4% | viability, T/C (second compound 0.1 µM, first compound 3.16 µM): 33.9% | viability, T/C (second compound 0.1 µM, first compound 10 µM): 23.3% | viability, T/C [9]: 96.8% | viability, T/C [10]: 83.2% | viability, T/C [11]: 77.9% | viability, T/C [12]: 55.3% | viability, T/C (second compound 0.316 µM, first compound 3.16 µM): 27.9% | viability, T/C (second compound 0.316 µM, first compound 10 µM): 20.7% | viability, T/C [13]: 98.3% | viability, T/C [14]: 86.8% | viability, T/C [15]: 71.8% | viability, T/C [16]: 46.5% | viability, T/C (second compound 1 µM, first compound 3.16 µM): 32.1% | viability, T/C (second compound 1 µM, first compound 10 µM): 19.1% | viability, T/C [17]: 103% | viability, T/C [18]: 86% | viability, T/C [19]: 65% | viability, T/C [20]: 55.2% | viability, T/C (second compound 3.16 µM, first compound 3.16 µM): 34.2% | viability, T/C (second compound 3.16 µM, first compound 10 µM): 20.9% | viability, T/C [21]: 106% | viability, T/C [22]: 74.3% | viability, T/C [23]: 56.5% | viability, T/C [24]: 39.1% | viability, T/C (second compound 10 µM, first compound 3.16 µM): 28.5% | viability, T/C (second compound 10 µM, first compound 10 µM): 16%

COc1cccc(OCCCN)c1-c1cc(Nc2cnc(C#N)cn2)n[nH]1 + Nc1ccc(C#CCN(C(=O)Cc2ncc(C(F)(F)F)cc2C(F)(F)F)c2ccc(F)cc2)nn1
IC50 (second compound 0.0316 µM): 5.44 nM | IC50 (second compound 0.1 µM): 5.2 nM | IC50 (second compound 0.316 µM): 5.7 nM | IC50 (second compound 1 µM): 5.69 nM | IC50 (second compound 3.16 µM): 5.41 nM | IC50 (second compound 10 µM): 5.7 nM | viability, T/C (second compound 0.0316 µM, first compound 0.00316 µM): 82.4% | viability, T/C (second compound 0.0316 µM, first compound 0.01 µM): 13.8% | viability, T/C [1]: 5.45% | viability, T/C [2]: 4.83% | viability, T/C [3]: 4.44% | viability, T/C [4]: 3.65% | viability, T/C (second compound 0.1 µM, first compound 0.00316 µM): 77.1% | viability, T/C (second compound 0.1 µM, first compound 0.01 µM): 14.6% | viability, T/C [5]: 4.6% | viability, T/C [6]: 5.23% | viability, T/C [7]: 3.56% | viability, T/C [8]: 3% | viability, T/C (second compound 0.316 µM, first compound 0.00316 µM): 87% | viability, T/C (second compound 0.316 µM, first compound 0.01 µM): 14.7% | viability, T/C [9]: 4.16% | viability, T/C [10]: 5.93% | viability, T/C [11]: 4.07% | viability, T/C [12]: 3.09% | viability, T/C (second compound 1 µM, first compound 0.00316 µM): 84.7% | viability, T/C (second compound 1 µM, first compound 0.01 µM): 16.7% | viability, T/C [13]: 5.79% | viability, T/C [14]: 4.2% | viability, T/C [15]: 4.04% | viability, T/C [16]: 2.8% | viability, T/C (second compound 3.16 µM, first compound 0.00316 µM): 84% | viability, T/C (second compound 3.16 µM, first compound 0.01 µM): 11.2% | viability, T/C [17]: 5.75% | viability, T/C [18]: 5.62% | viability, T/C [19]: 3.65% | viability, T/C [20]: 3.11% | viability, T/C (second compound 10 µM, first compound 0.00316 µM): 87.2% | viability, T/C (second compound 10 µM, first compound 0.01 µM): 14.5% | viability, T/C [21]: 5.81% | viability, T/C [22]: 3.93% | viability, T/C [23]: 4.01% | viability, T/C [24]: 3.39%

From PubChem BioAssay AID1963839 (Molecular Pharmacology Branch, DTP, NCI, 2024)
